From publication PMC6628712 (Journal of enzyme inhibition and medicinal chemistry, 2016)
Read-outs that look alike come from different tables or passages of the source.

What was measured:
CYP26A1 [1] = target: T1, CYP26A1 (Homo sapiens, UniProt O43174); assay: Inhibition of CYP26A1-catalyzed tazarotenic acid sulfoxide formation; format: biochemical
T1 sequence (O43174 1-497): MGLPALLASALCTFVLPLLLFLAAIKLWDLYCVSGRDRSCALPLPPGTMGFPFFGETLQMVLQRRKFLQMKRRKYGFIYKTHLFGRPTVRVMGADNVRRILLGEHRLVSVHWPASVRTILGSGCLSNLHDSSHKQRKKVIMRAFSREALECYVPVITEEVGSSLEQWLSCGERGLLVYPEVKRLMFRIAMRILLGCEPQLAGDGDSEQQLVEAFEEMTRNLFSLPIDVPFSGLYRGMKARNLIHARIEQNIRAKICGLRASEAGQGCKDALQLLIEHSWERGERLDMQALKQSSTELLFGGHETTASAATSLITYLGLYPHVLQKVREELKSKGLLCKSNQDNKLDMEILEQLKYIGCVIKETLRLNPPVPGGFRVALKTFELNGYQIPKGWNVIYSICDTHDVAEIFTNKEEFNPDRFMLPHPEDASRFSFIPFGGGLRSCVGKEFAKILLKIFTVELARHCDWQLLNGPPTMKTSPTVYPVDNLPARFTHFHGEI

[2] = test system: CYP26A1, CYP26B1 or CYP2C8; assay: In vitro stability of candesartan cilexetil; format: in vitro ADME; conditions: 1 μM, 5 nM CYP26A1, CYP26B1 or CYP2C8, NADPH, up to 10 minutes; data not shown
CYP26B1 [3] = target: T2, CYP26B1 (Homo sapiens, UniProt Q9NR63); assay: Spectral binding determination, CYP26B1; conditions: for Binding mechanism, CYP26B1: UV-difference spectra
T2 sequence (Q9NR63 1-512): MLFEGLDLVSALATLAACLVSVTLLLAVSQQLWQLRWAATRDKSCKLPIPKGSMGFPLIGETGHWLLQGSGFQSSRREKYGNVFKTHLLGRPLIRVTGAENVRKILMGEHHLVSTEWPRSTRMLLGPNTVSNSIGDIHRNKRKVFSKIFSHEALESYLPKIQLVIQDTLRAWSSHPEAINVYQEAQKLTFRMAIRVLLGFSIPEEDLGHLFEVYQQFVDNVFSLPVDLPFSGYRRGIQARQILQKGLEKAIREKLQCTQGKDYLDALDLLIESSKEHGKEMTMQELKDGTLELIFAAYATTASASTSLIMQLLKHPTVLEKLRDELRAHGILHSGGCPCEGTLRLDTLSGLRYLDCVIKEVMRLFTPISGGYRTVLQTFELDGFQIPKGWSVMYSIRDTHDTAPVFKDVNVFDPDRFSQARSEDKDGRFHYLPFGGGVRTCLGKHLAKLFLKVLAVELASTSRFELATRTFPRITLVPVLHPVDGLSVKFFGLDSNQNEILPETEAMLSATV

CYP26B1 [4] = target: T2, CYP26B1; assay: Inhibition of CYP26B1-catalyzed tazarotenic acid sulfoxide formation; format: biochemical
CYP2C8 [5] = target: T3, CYP2C8 (Homo sapiens, UniProt P10632); conditions: read-out: CYP2C8 IC50, substrate amodiaquine, cited from earlier work
T3 sequence (P10632 1-490): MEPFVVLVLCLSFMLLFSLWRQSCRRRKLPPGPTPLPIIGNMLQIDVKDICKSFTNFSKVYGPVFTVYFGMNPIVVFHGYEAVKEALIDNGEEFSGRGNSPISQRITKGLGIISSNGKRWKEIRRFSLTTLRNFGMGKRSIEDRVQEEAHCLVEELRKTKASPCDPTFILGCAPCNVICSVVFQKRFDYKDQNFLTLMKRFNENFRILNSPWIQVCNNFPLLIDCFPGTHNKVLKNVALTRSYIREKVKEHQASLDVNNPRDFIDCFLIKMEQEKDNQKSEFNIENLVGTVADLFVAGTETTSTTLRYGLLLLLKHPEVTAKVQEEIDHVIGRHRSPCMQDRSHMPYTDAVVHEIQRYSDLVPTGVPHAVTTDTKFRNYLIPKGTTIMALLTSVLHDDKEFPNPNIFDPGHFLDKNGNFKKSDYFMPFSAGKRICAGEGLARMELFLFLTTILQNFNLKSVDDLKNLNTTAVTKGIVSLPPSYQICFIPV

CYP2C8 [6] = assay: In vitro free fraction by rapid equilibrium dialysis; format: in vitro ADME; conditions: human, pH 7.4, fu (IC50 assay), CYP2C8, conditions of CYP2C8 IC50 assay
[7] = unbound fraction in plasma; ref [64]–[73]; cited from earlier work
[8] = human, in vivo
CYP2C8 [9] = target: T3, CYP2C8; assay: Spectral binding determination, CYP2C8; conditions: UV-difference spectra
CYP26A1 [10] = target: T1, CYP26A1; assay: Spectral binding determination, CYP26A1; conditions: for Binding mechanism, CYP26A1: UV-difference spectra
[11] = ref [64]–[73], cited from earlier work; for Cmax: total plasma, clinically relevant dose as in column Oral Dose
CYP26A1 [12] = conditions: in vitro; ref [97]; cited from earlier work
[13] = patient with acute promyelocytic leukemia, co-administration of oral fluconazole; ref [102]; cited from earlier work
[14] = CYP26B1 IC50, tazarotenic acid, recombinant CYP26B1, probe tazarotenic acid sulfoxide formation, ± standard error
[15] = CYP26A1 IC50, tazarotenic acid, recombinant CYP26A1, probe tazarotenic acid sulfoxide formation, ± standard error

Binding mechanism, CYP26B1 (CYP26B1 [3]) | IC50 (CYP26B1 [4]; [14]) | IC50 (CYP26A1 [1]; [15]) | Binding mechanism, CYP26A1 (CYP26A1 [10]) | Cmax,u [8] | Structure (SMILES) | IC50 (CYP2C8 [5]; ref [51]) | fu,plasma [7] | Inhibition of CYP26A1-catalyzed 4-hydroxyretinoic acid formation (CYP26A1 [12]) | Cmax [11] | further results
No binding spectra could be obtained | 270 ± 60 nM | – | – | – | CCOc1nc2cccc(C(=O)OC(C)OC(=O)OC3CCCCC3)c2n1Cc1ccc(-c2ccccc2-c2nnn[nH]2)cc1 (stereo not shown) [Candesartan Cilexetil] | 496 ± 190 nM | – | – | – | IC50 (CYP26A1 [1]): 410 ± 320 nM; Degradation of candesartan cilexetil [2]: Minimal degradation
Type II | 50 ± 10 nM | 20 ± 10 nM | Type II | – | Clc1ccccc1C(c1ccccc1)(c1ccccc1)n1ccnc1 [Clotrimazole] | – | 0.100 | not be inhibitors | – | fraction unbound at 12 h, 1 μM (CYP2C8 [6]): 0.155 ± 0.024; IC50 (CYP26A1 [1]; CYP26A1 IC50, probe tazarotenic acid): 24.7 ± 8.1 nM; IC50 (CYP26A1 [1]; IC50,unb CYP26A1, IC50 corrected for unbound fraction in the assay): 16.3 nM; Cmax,u (skin) [8]: 6730 nM; Binding mechanism, CYP2C8 (CYP2C8 [9]): Type II; Kd (CYP26A1 [10]; Ks (spectral binding constant), CYP26A1, 500 nM protein, ± standard error): 533 ± 71.8 nM; Kd (CYP26A1 [10]; Ks,unb CYP26A1, Ks corrected for nonspecific binding): 13.3 nM; Total skin concentration ([11]; following topical administration): 67.3 µM; Kd (CYP26B1 [3]; Ks (spectral binding constant), CYP26B1, 500 nM protein, ± standard error): 4950 ± 640 nM; Kd (CYP26B1 [3]; Ks,unb CYP26B1, Ks corrected for nonspecific binding): 24.7 nM; IC50 (CYP26B1 [4]; CYP26B1 IC50, probe tazarotenic acid): 50.1 ± 12.1 nM; IC50 (CYP26B1 [4]; IC50,unb CYP26B1, IC50 corrected for unbound fraction in the assay): 21.5 nM
– | 14000 ± 1110 nM | 21400 ± 20300 nM | – | 6.40 nM | CC/C(=C(\c1ccccc1)c1ccc(OCCN(C)C)cc1)c1ccccc1 [Tamoxifen] | 3340 ± 1550 nM | 0.020 | not be inhibitors | 323 nM | –
– | 710 ± 230 nM | 60 ± 20 nM | No binding spectra could be obtained | 3.00 nM | COc1cc(C(=O)NS(=O)(=O)c2ccccc2C)ccc1Cc1cn(C)c2ccc(NC(=O)OC3CCCC3)cc12 [Zafirlukast] | 644 ± 273 nM | 0.010 | – | 1120 nM | Selectivity for CYP26A1 (versus CYP26B1) (CYP26A1 [1]; ratio of IC50 values, tazarotenic acid probe): 11.8 fold

The next lines start with the compound.

Structure (SMILES) | Binding mechanism, CYP26B1 (CYP26B1 [3]) | IC50 (CYP26B1 [4]; [14]) | IC50 (CYP26A1 [1]; [15]) | Binding mechanism, CYP26A1 (CYP26A1 [10]) | Cmax,u [8] | IC50 (CYP2C8 [5]; ref [51]) | fu,plasma [7] | Inhibition of CYP26A1-catalyzed 4-hydroxyretinoic acid formation (CYP26A1 [12]) | Cmax [11] | further results
OC(Cn1cncn1)(Cn1cncn1)c1ccc(F)cc1F [Fluconazole] | – | 19800 ± 3210 nM | 700 ± 190 nM | – | 30794 nM | – | – | not be inhibitors | 34600 nM | Increase of AUC of orally administered retinoic acid [13]: 4 fold; Increase of Cmax of orally administered retinoic acid [13]: 6 fold; IC50 (CYP2C8 [5]; ref [50]): 48900 nM
O=c1c(O)c(-c2ccc(O)c(O)c2)oc2cc(O)cc(O)c12 [Quercetin] | – | 76200 ± 148000 nM | 1920 ± 390 nM | – | 0.45 nM | – | 0.009 | not be inhibitors | 50.9 nM | –
